# According to PMC7277860, “Viridistratins A−C, Antimicrobial and Cytotoxic Benzo[j]fluoranthenes from Stromata of Annulohypoxylon viridistratum (Hypoxylaceae, Ascomycota)” (Biomolecules, 2020):
# Assays:
# Assay in all cases: MIC serial dilution assay
# Format in all cases: cell-based
# [1] = system: Pseudomonas aeruginosa; settings: Pseudomonas aeruginosa PA14; overnight, 37 °C; reference gentamicin 0.1 mg/mL; read-out: Minimum Inhibitory Concentration (MIC)
# Experimental: (§1) Compounds 1, 2, 4 and 5 were dissolved in MeOH (1 mg/mL) for the antimicrobial activity assay, while compound 3 was dissolved in MeOH: DMSO 9+1 (1 mg/mL). The solvents were also used as negative controls.
# (§2) Minimum inhibitory concentrations (MIC) were determined in a serial dilution assay, as described previously; a detailed protocol can be found in the Supporting Information. The compounds (1 mg/mL) were diluted to a range of 66.7 to 0.52 µg/mL and incubated with the test organisms overnight. Inhibition of growth was visually evaluated the next day: the MIC is defined as the lowest concentration of the test compound where no growth of the test organism was observed. Various test organisms of fungal and bacterial origin were tested to cover a broad range of microorganisms. This selection is also being used as a standard test panel in our attempts to discover new anti-infectives, as it represents a broad spectrum of pathogens of clinical interest, as well as sensitive indicator strains (bacteria: Bacillus subtilis, Staphylococcus aureus, Micrococcus luteus, Chromobacterium violaceum, Escherichia coli and Pseudomonas aeruginosa; mycobacteria: Mycolicibacterium smegmatis and fungi: Candida albicans, Schizosaccharomyces pombe, Mucor hiemalis, Pichia anomala and Rhodotorula glutinis).
# (§3) Protocol: Antimicrobial Activi ty Assay
# (§4) The assay was conducted as a minimum inhi bitory concentration (MIC) assay in 96-well ro und-bottom mi crotiter pl ate s usi ng the p ar ameter s su mm ari zed i n T a bl e S 1 and as already described i n [S1].
# (§5) Stocks of the test organi sms were generated by growing the organisms o ver ni ght i n 50 mL shaki ng fl asks fi ll ed wi th 25 mL of the growth medi um at 140 rpm (for media and temperatures see Table S1). If the organisms were well grown the ne xt day, which was checked by occurrence of an optical density (OD)>30 of the suspension (OD600 nm for bacteria, OD548 nm for fungi and M. smegma tis) , aliquots of these were stored i n 1.5 mL reaction tube s in a freezer at −80 °C for up to 12 mo nths . Upon use, aliquots were unth awed and the OD of the suspension measured and adjusted by diluting with the respective growth medi um. OD600 nm w as adj usted to 0.01 and OD548 nm to 0.1.
# (§6) Subse que ntly, 150 µL o f the adjusted suspensions were added to all wells of a 96-wel l microtiter pl ate (one test organi sm per plate). In row A, additional 130 µL of suspensions plus 20 µL of the test compounds (1 mg/mL) and the controls (one compound/column) were added. MeOH as well as MeOH:DMSO 9+1 were used as negative controls, while different positive controls (refer ences) were used for the test organisms (see Tabl e S1). Then, starti ng from row A, 150 µ L of the suspension were transferred to the next row, the contents thoroughly mixed, and 150 µ L transferred to the following row.
# (§7) The remaining 150 µ L after row H were discarded. […]
# (§8) compounds, ranging from 66.7 µg/mL i n row A to 0.52 µg/mL i n row H.
# (§9) The microtiter plates were then incubated overnight o n a microplate shaker at 800 rpm at 30 or 37 °C (see Table S1) and were visually evaluated the next day. The MIC is defined as the lowest concentration were no growth of the test organism was o bserved. A lower MIC thus corresponds to a higher antimicrobial activity of the test compound.
# (§10) Table S1: MIC assay ex per i men t parameters test organism strain No. growth incubation positive control (reference) […]
# Pseudomonas a erugi nosa PA14 MHB 1 37 gent amici n 0.1 mg/mL […]
# (§11) Rhodotorula glutinis DSM10134 MYC 3 30 nyst ati n 1.0 mg/mL
# (§12) 1 MHB: Müller-Hinton Broth (SN X927.1, Ca r l Roth GmbH, Karlsruhe, Germany) 2 7H9+ADC: Middlebrook 7H9 Broth Base + Middlebrook ADC Growth Supplement (SN M0678+M0553, Merck, Darmstadt, Germany)
# (§13) 3 MYC: 1 % w/v, bacto peptone, 1% w/v yeast extract, 2 % w /v glycerol, pH 6.3 [S1] Helaly, S.E.; Ashrafi, S.; Teponno, R.B.; Bernecker, S.; Dababat, A.A.; Maier, W.; Stadler, M.
# (§14) Nematicidal Cyclic Lipodepsipeptides and a Xanthocillin Derivative from a Phaeosphariaceous […]
# [2] = system: Escherichia coli; settings: Escherichia coli DSM1116; overnight, 37 °C; reference oxytetracycline 0.1 mg/mL; read-out: Minimum Inhibitory Concentration (MIC)
# Experimental: as §1, §2, §3, §4, §5, §6, §7, §8, §9, §10
# Escherichia coli DSM1116 MHB 1 37 oxytetr acyclin 0.1 mg/mL […]
# as §11, §12, §13, §14
# [3] = system: Candida albicans; settings: Candida albicans DSM1665; overnight, 30 °C; reference nystatin 1 mg/mL; read-out: Minimum Inhibitory Concentration (MIC)
# Experimental: as §1, §2, §3, §4, §5, §6, §7, §8, §9, §10
# Candida albicans DSM1665 MYC 3 30 nyst ati n 1.0 mg/mL […]
# as §11, §12, §13, §14
# [4] = system: Staphylococcus aureus; settings: Staphylococcus aureus DSM346; overnight, 30 °C; reference oxytetracycline 0.1 mg/mL; read-out: Minimum Inhibitory Concentration (MIC)
# Experimental: as §1, §2, §3, §4, §5, §6, §7, §8, §9, §10
# Staphylococcus aureus DSM346 MHB 1 30 oxytetr acyclin 0.1 mg/mL […]
# as §11, §12, §13, §14
# [5] = system: Rhodotorula glutinis; settings: Rhodotorula glutinis, DSM10134, Rhodotorula glutinis DSM10134; overnight, 30 °C; reference nystatin 1 mg/mL; read-out: Minimum Inhibitory Concentration (MIC)
# Experimental: as §1, §2, §3, §4, §5, §6, §7, §8, §9, §10, §11, §12, §13, §14
# [6] = system: Mycolicibacterium smegmatis; settings: Mycolicibacterium smegmatis ATCC700084; overnight, 37 °C; reference kanamycin 0.1 mg/mL; read-out: Minimum Inhibitory Concentration (MIC)
# Experimental: as §1, §2, §3, §4, §5, §6, §7, §8, §9, §10, §11, §12, §13, §14
Structure (SMILES),MIC [1],MIC [2],MIC [3],MIC [4],MIC [5],MIC [6]
"Oc1cccc2c3c(ccc12)-c1ccc(O)c2c(O)ccc-3c12 [Compound 1, viridistratin A]",> 66.7 µg/mL,> 66.7 µg/mL,> 66.7 µg/mL,66.7 µg/mL,33.3 µg/mL,> 66.7 µg/mL
"O=C1C[C@H]2C(=C3CCC(=O)c4c(O)ccc2c43)c2cccc(O)c21 [Compound 4, truncatone A]",> 66.7 µg/mL,> 66.7 µg/mL,> 66.7 µg/mL,> 66.7 µg/mL,> 66.7 µg/mL,> 66.7 µg/mL
"O=C1CCC(=O)c2c1c(O)cc1c2-c2ccc(O)c3c(O)ccc-1c23 [Compound 5, truncatone C]",> 66.7 µg/mL,> 66.7 µg/mL,> 66.7 µg/mL,> 66.7 µg/mL,,> 66.7 µg/mL

# Further lines, results first:
MIC [1],MIC [2],MIC [3],MIC [4],MIC [5],MIC [6],Structure (SMILES)
> 66.7 µg/mL,> 66.7 µg/mL,> 66.7 µg/mL,16.7 µg/mL,33.3 µg/mL,33.3 µg/mL,"COc1cccc2c3c(ccc12)-c1ccc(O)c2c(O)ccc-3c12 [Compound 2, viridistratin B]"
> 66.7 µg/mL,> 66.7 µg/mL,> 66.7 µg/mL,> 66.7 µg/mL,> 66.7 µg/mL,> 66.7 µg/mL,"COc1cccc2c3c(ccc12)-c1ccc(O)c2c(OC)ccc-3c12 [Compound 3, viridistratin C]"
